The values that follow come from patent US20030055065A1, “Tricyclic amide and urea compounds useful for inhibition of G-protein function and for treatment of proliferative diseases” (priority 1993, published 2003).

“And” between values parts separate entries of the source, which are not always exact repeats. Equal values may be shown once. Read-outs that look alike come from different tables or passages of the source. A value given as a limit tells only on which side of the number the result lay.

The subject of experiment [1] is T24-BAG4 human bladder carcinoma cells expressing an activated H-ras gene. The experiment is described as follows: Cell Mat Assay: tumor cell colony inhibition (tIC50). It counts as cell-based. The conditions noted are these: inhibition of tumor cell growth. How it is done: (§1) Compound-induced colony inhibition was assayed by addition of serial dilutions of compound directly to the growth medium 24 h after tumor cell planting, and incubating cells for an additional 14 d to allow colony formation. Assays were terminated by rinsing monolayers twice with phosphate-buffered saline (PBS), fixing the monolayers with a 1% glutaraldehyde solution in PBS, then visualizing tumor cells by staining with X-Gal (Price, J., et al., Lineage analysis in the vertebrate nervous system by retrovirus-mediated gene transfer, Proc. Natl. Acad. Sci.84, 156-160(1987)). […] Both IC50 values were obtained by determining the density of tumor cells and mat cells by visual inspection and enumeration of cells per colony and the number of colonies under the microscope.

Experiment [2] concerns Normal human HEPM fibroblasts. The experiment is described as follows: Cell Mat Assay: density of mat cells (mIC50). It counts as cell-based. The procedure: as §1
In experiment [3] the target is T1, farnesyl protein transferase (FPT), partially purified from rat brain (Rattus norvegicus, UniProt Q02293+Q04631).
T1 construct: were partially purified from rat brain by ammonium sulfate fractionation followed by Q-Sepharose
Briefly: Inhibition of farnesyl protein transferase (transfer of [3H]farnesyl to Ras-CVLS). The format is biochemical. An outline of the steps:
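Transfer of [3H]farnesyl onto E. coli-expressed, His6-tagged Ras-CVLS was measured after 30 min at room temperature. Radiolabelled Ras was TCA-precipitated on ice and filter-harvested, and inhibition was expressed as percent of DMSO control.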

Where [4] appears, read: FPT IC50, Ras-CVLS farnesylation, partially purified rat brain FPT.
[5] abbreviates: Ras-CVLS farnesylation, partially purified rat brain FPT, read-out: FPT IC50.
The mark [6] stands for this setting: enzyme inhibition, read-out: FPT IC50.

T1 sequence (Q02293 whole entry, one chain of several): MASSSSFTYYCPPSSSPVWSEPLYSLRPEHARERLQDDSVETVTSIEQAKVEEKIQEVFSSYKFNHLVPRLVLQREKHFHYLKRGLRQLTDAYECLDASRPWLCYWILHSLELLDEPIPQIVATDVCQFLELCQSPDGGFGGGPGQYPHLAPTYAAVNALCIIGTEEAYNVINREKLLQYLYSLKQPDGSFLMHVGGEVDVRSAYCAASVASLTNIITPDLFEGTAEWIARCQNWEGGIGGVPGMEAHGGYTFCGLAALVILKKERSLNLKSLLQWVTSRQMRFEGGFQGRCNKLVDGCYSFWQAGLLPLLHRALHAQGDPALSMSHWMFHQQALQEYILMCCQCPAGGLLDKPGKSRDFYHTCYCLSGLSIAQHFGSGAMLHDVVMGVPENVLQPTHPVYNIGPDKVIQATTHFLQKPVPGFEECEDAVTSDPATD

The IC50 is the concentration that gives 50% inhibition. For `O=C(Cc1ccncc1)N1CCC(=C2c3ccncc3CCc3cc(Cl)ccc32)CC1` [160 (5.39)], the IC50 in experiment [1] is 37 µM; in experiment [2], 50 µM.
`O=C(Cc1ccncc1)N1CCC(=C2c3ccc(Cl)cc3CCc3cc(Cl)cnc32)CC1` [180 (5.47)]: the results for the IC50 in experiment [1] and in experiment [2] were 18 µM and over 50 µM, respectively.
With `O=C(Nc1ccncc1)N1CCN(C2c3ccc(Cl)cc3CCc3cccnc32)CC1` (centres unmarked) [183 (6.5)], the IC50 in experiment [1] (Homo sapiens) stood at 5 µM; in experiment [2] (Homo sapiens, Fibroblast), 18 µM.
With `O=C(Cc1cccnc1)N1CCN(C2c3ccc(Cl)cc3CCc3ccc[n+]([O-])c32)CC1` (centres unmarked) [184 (5.60)], the IC50 in experiment [3] (setting [4]) is 0.91 µM; in experiment [1] (Homo sapiens) it was 12.5 µM; in experiment [2] (Homo sapiens, Fibroblast), over 50 µM.
`O=C(C(=O)N1CCC(=C2c3ccc(Cl)cc3CCc3cccnc32)CC1)c1c[nH]c2ccccc12` [219 (5.92)]: the IC50 in experiment [1] is 25 µM; in experiment [2], over 50 µM.
Take `O=C(Cc1ccccc1[N+](=O)[O-])C(=O)N1CCC(=C2c3ccc(Cl)cc3CCc3cccnc32)CC1` [220 (5.93)]: the IC50 in experiment [1] is 25 µM; in experiment [2] it was over 50 µM.
As to `O=C(Cc1csc2ccccc12)N1CCC(=C2c3ccc(Cl)cc3CCc3cccnc32)CC1` [221 (5.94)], the 50% inhibitory concentration (IC50) is 6.25 µM in experiment [1] and over 50 µM in experiment [2].
As to `O=C(Cc1cccnc1)N1CCN([C@@H]2c3ccc(Cl)cc3CCc3cccnc32)CC1` [223 (5.96)], the IC50 was 2.1 µM in experiment [3] (setting [4]); 25 µM in experiment [1] (Homo sapiens); over 50 µM in experiment [2] (Homo sapiens, Fibroblast).
For `O=C(Cc1cccnc1)N1CCN([C@H]2c3ccc(Cl)cc3CCc3cccnc32)CC1` [223 (5.97)], the IC50 was 0.19 µM and 0.72 µM and 0.61 µM in experiment [3] (setting [4]); 8 µM in experiment [1] (Homo sapiens); over 50 µM in experiment [2] (Homo sapiens, Fibroblast).
With `CC(=O)N1CCC(CC(=O)N2CCN([C@@H]3c4ccc(Cl)cc4CCc4cccnc43)CC2)CC1` [225 (5.98)], the IC50 in experiment [3] (setting [5]) was 3.5 µM; in experiment [1] (Homo sapiens), 12.5 µM; in experiment [2] (Homo sapiens, Fibroblast), 50 µM.
The matching figures for `CC(=O)N1CCC(C(=O)N2CCN([C@@H]3c4ccc(Cl)cc4CCc4cccnc43)CC2)CC1` [226 (5.100)]: 4.1 µM, 25 µM and over 50 µM.
The matching figures for `O=C(c1ccc([N+](=O)[O-])cc1)N1CCC(=C2c3ccc(Cl)cc3CCc3cccnc32)CC1` [Example 10]: 4.3 µM, 25 µM and over 50 µM.
`O=C(CCCc1ccccc1)N1CCC(=C2c3ccc(Cl)cc3CCc3cccnc32)CC1` [Example 11]: the IC50 in experiment [3] (setting [5]) is 4.3 µM; in experiment [1], over 50 µM; in experiment [2] it was over 50 µM.
Regarding `O=C(CSc1ncccn1)N1CCC(=C2c3ccc(Cl)cc3CCc3cccnc32)CC1` [Example 12], the IC50 in experiment [3] (setting [5]) was 4.3 µM; in experiment [1] (Homo sapiens), 50 µM; in experiment [2] (Homo sapiens, Fibroblast), over 50 µM.
For the molecule `O=C(Cc1ccccc1)N1CCN(C2c3ccc(Cl)cc3CCc3cccnc32)CC1` (centres unmarked) [Example 80], the IC50 in experiment [3] (setting [4]) was 2.73 µM; in experiment [1] (Homo sapiens), over 50 µM; in experiment [2] (Homo sapiens, Fibroblast) it was over 50 µM.
As to `CC(S)C(=O)NCC(=O)N1CCN(C2c3ccc(Cl)cc3CCc3cccnc32)CC1` (centres unmarked) [Example 81], the IC50 in experiment [3] (setting [5]) is 2.78 µM; in experiment [1] (Homo sapiens) it was over 50 µM; in experiment [2] (Homo sapiens, Fibroblast) it was over 50 µM.
As to `NS(=O)(=O)c1ccc(C(=O)N2CCC(=C3c4ccc(Cl)cc4CCc4cccnc43)CC2)cc1` [Example 90], the IC50 in experiment [3] (setting [5]) was 3.4 µM; in experiment [1] (Homo sapiens), 50 µM; in experiment [2] (Homo sapiens, Fibroblast), over 50 µM.
The matching figures for `CS(=O)(=O)Nc1ccc(C(=O)N2CCC(=C3c4ccc(Cl)cc4CCc4cccnc43)CC2)cc1` [Example 91]: 3.9 µM, 50 µM and 80 µM.
For `CS(=O)(=O)c1ccc(C(=O)N2CCC(=C3c4ccc(Cl)cc4CCc4cccnc43)CC2)cc1` [Example 93], in that order: 3.9 µM, 40 µM and over 50 µM.
As to `C[S+]([O-])c1ccc(C(=O)N2CCC(=C3c4ccc(Cl)cc4CCc4cccnc43)CC2)cc1` (centres unmarked) [Example 94], the IC50 in experiment [3] (setting [5]) was found to be 4 µM; in experiment [1] (Homo sapiens) it was 40 µM; in experiment [2] (Homo sapiens, Fibroblast), 80 µM.
Regarding `O=C(C1CCS(=O)(=O)CC1)N1CCC(=C2c3ccc(Cl)cc3CCc3cccnc32)CC1` [Example 95], the IC50 was 4.2 µM in experiment [3] (setting [5]); over 50 µM in experiment [1] (Homo sapiens); over 50 µM in experiment [2] (Homo sapiens, Fibroblast).
With `O=C(/C=C/c1cccnc1)N1CCC(=C2c3ccc(Cl)cc3CCc3cccnc32)CC1` [Example 96], the IC50 was 4.3 µM in experiment [3] (setting [5]); 50 µM in experiment [1] (Homo sapiens); over 50 µM in experiment [2] (Homo sapiens, Fibroblast).
On to `Cc1cnc2c(c1)CCc1cc(Cl)ccc1C2=C1CCN(C(=O)Cc2ccncc2)CC1` [Example 301], for which the IC50 was 0.04 µM and 0.075 µM in experiment [3] (setting [5]); over 50 µM in experiment [2] (Homo sapiens, Fibroblast).
`O=C(Cc1ccc[n+]([O-])c1)N1CCN([C@H]2c3ccc(Cl)cc3CCc3cccnc32)CC1` [Example 425-G] yielded an IC50 in experiment [3] (FPT IC50, enzyme inhibition) of 2.3 µM.
For `CN1CCC(CC(=O)N2CCN([C@@H]3c4ccc(Cl)cc4CCc4cccnc43)CC2)CC1` [Example 425-M], the IC50 in experiment [3] (setting [6]) was found to be 1.8 µM.
Same read-out and setting: the figure for `CN1CCC(CC(=O)N2CCN([C@H]3c4ccc(Cl)cc4CCc4cccnc43)CC2)CC1` [Example 425-N] is 0.64 µM.
Same read-out and setting: the figure for `CN1CCCC(CC(=O)N2CCN([C@@H]3c4ccc(Cl)cc4CCc4cccnc43)CC2)C1` (some centres unmarked) [Example 425-R] is 1.7 µM; for `CN1CCCC(CC(=O)N2CCN([C@H]3c4ccc(Cl)cc4CCc4cccnc43)CC2)C1` (some centres unmarked) [Example 425-S] it is 0.6 µM.
On to `CN1CCCC(CC(=O)N2CCN(C3c4ccc(Cl)cc4CCc4cc(Br)cnc43)CC2)C1` (centres unmarked) [Example 425-U], for which the IC50 is 6.25 µM in experiment [1] (Homo sapiens) and 10 µM in experiment [2] (Homo sapiens, Fibroblast).
Turning to `O=C(Nc1ccc[n+]([O-])c1)N1CCN(C2c3ccc(Cl)cc3CCc3cccnc32)CC1` (centres unmarked) [Example 427-A], the IC50 in experiment [3] (setting [6]) came to 2.2 µM.
The same measure, in the same setting: the figure for `O=C(Nc1cc[n+]([O-])cc1)N1CCN(C2c3ccc(Cl)cc3CCc3cc(Br)cnc32)CC1` (centres unmarked) [Example 427-B] is 0.21 µM; for `O=C(Nc1ccc[n+]([O-])c1)N1CCN(C2c3ccc(Cl)cc3CCc3cc(Br)cnc32)CC1` (centres unmarked) [Example 427-C] it is 0.24 µM; for `O=C(Nc1cc[n+]([O-])cc1)N1CCN(C2c3ccc(Cl)cc3CCc3cccnc32)CC1` (centres unmarked) [Example 427] it is 1.8 µM.
On the same count and under the same terms, the figure for `O=C(CC1CCCNC1)N1CCN(C2c3ccc(Cl)cc3CCc3cccnc32)CC1` (centres unmarked) [Example 428-A] is 1.1 µM; for `CCN1CCC(CC(=O)N2CCN(C3c4ccc(Cl)cc4CCc4cccnc43)CC2)CC1` (centres unmarked) [Example 429] it is 1.27 µM.
Still for that read-out and setting: in the case of `COC(=O)N1CCCC(CC(=O)N2CCN(C3c4ccc(Cl)cc4CCc4cccnc43)CC2)C1` (centres unmarked) [Example 430-A] it was 7 µM; in that of `COC(=O)N1CCC(CC(=O)N2CCN(C3c4ccc(Cl)cc4CCc4cccnc43)CC2)CC1` (centres unmarked) [Example 430], 1.3 µM.
Consider `CNC(=O)N1CCC(CC(=O)N2CCN(C3c4ccc(Cl)cc4CCc4cccnc43)CC2)CC1` (centres unmarked) [Example 431-A], for which the 50% inhibitory concentration (IC50) in experiment [3] (setting [6]) came out at 1.05 µM.
Still for that read-out and setting: in the case of `CCNC(=O)N1CCC(CC(=O)N2CCN(C3c4ccc(Cl)cc4CCc4cccnc43)CC2)CC1` (centres unmarked) [Example 431-B] it was 0.92 µM; in that of `CCCNC(=O)N1CCC(CC(=O)N2CCN(C3c4ccc(Cl)cc4CCc4cccnc43)CC2)CC1` (centres unmarked) [Example 431-C], 0.88 µM.
On the same count and under the same terms, the figure for `CC(C)(C)NC(=O)N1CCC(CC(=O)N2CCN(C3c4ccc(Cl)cc4CCc4cccnc43)CC2)CC1` (centres unmarked) [Example 431-D] is 1 µM; for `CNC(=S)N1CCC(CC(=O)N2CCN(C3c4ccc(Cl)cc4CCc4cccnc43)CC2)CC1` (centres unmarked) [Example 431-E] it is 0.88 µM; for `NC(=O)N1CCCC(CC(=O)N2CCN(C3c4ccc(Cl)cc4CCc4cccnc43)CC2)C1` (centres unmarked) [Example 431-F] it is 1.75 µM.
Take `CNC(=O)N1CCCC(CC(=O)N2CCN(C3c4ccc(Cl)cc4CCc4cccnc43)CC2)C1` (centres unmarked) [Example 431-G]: the IC50 in experiment [3] (setting [6]) was 7 µM.
As for `NC(=O)N1CCC(CC(=O)N2CCN(C3c4ccc(Cl)cc4CCc4cccnc43)CC2)CC1` (centres unmarked) [Example 431], in experiment [3] (setting [6]), the IC50 is 0.82 µM.
For the molecule `CN1CCCC(NC(=O)N2CCN(C3c4ccc(Cl)cc4CCc4cccnc43)CC2)C1` (centres unmarked) [Example 432], the IC50 in experiment [3] (setting [6]) came to 0.66 µM.
On to `N[C@@H](CO)C(=O)N1CCC(CC(=O)N2CCN(C3c4ccc(Cl)cc4CCc4cccnc43)CC2)CC1` (some centres unmarked) [Example 433-A], for which the IC50 in experiment [3] (setting [5]) is 1.1 µM.
For `CSCC[C@H](N)C(=O)N1CCC(CC(=O)N2CCN(C3c4ccc(Cl)cc4CCc4cccnc43)CC2)CC1` (some centres unmarked) [Example 433-B], the half-maximal inhibitory concentration (IC50) in experiment [3] (setting [5]) is 1.89 µM.
Take `NCC(=O)N1CCC(CC(=O)N2CCN(C3c4ccc(Cl)cc4CCc4cccnc43)CC2)CC1` (centres unmarked) [Example 433-C]: the IC50 in experiment [3] (setting [5]) is 2.5 µM.
Still for that read-out and setting: in the case of `C[C@H](N)C(=O)N1CCC(CC(=O)N2CCN(C3c4ccc(Cl)cc4CCc4cccnc43)CC2)CC1` (some centres unmarked) [Example 433] it was 2.5 µM.
For the molecule `COC(=O)c1ccc2c(c1)CCc1cccnc1C2=C1CCN(C(=O)Cc2ccncc2)CC1` [Example 434-A], the IC50 in experiment [3] (setting [6]) stood at 3.5 µM.
For `NC(=O)c1ccc2c(c1)CCc1cccnc1C2=C1CCN(C(=O)Cc2ccncc2)CC1` [Example 436-D], the IC50 in experiment [3] (setting [5]) is 0.75 µM.
